The values below come from patent publication US5863716A, “Treatment of plasmodium” (The Leland Stanford Junior University Board of Trustees, priority 1997, dated 1999).

The subject of data set [1] is P. falciparum schizonts and merozoites. The experiment in a line: Schizont maturation and merozoite invasion in the presence of drug. The format is cell-based, Plasmodium falciparum. The following applies: 5 μM. How it is done:
Schizont-stage parasites isolated over Percoll were allowed to invade in the presence of RPMI 1640 containing 10% human serum or in the presence of RPMI 1640 containing 10% human serum and 5 μM PPMP. 1×10^8 infected erythrocytes of the appropriate stage were incubated in 1 ml of RPMI 1640 supplemented with 2mg/ml defatted BSA and 20 μM C5 -DMB-ceramide. Cells were washed and fixed as described in Example 5. Sequential micrographs were taken on a custom made laser confocal microscope at 400 nm intervals along the Z axis. Raw data were processed as described previously.
Furthermore, the released daughter merozoites enter red cells to form new rings in the continued presence of the drug. This supports the conclusion that the parasite sphingomyelin synthase is essential only to ring and trophozoite-infected red cells in the first 30 to 36 h of intraerythrocytic development.
To determine whether the parasite specific sphingomyelin synthase activity is required for the development of the TVM, ring-infected erythrocytes inhibited in the enzyme from the onset of intra- erythrocytic development were employed. […] Optical sections obtained by staining with C5 DMB-ceramide were observed. A tubular structure was seen extending from the body of the parasite apparently connected to a larger vesicle in the red cell. In rings formed in the presence of PPMP, the intraerythrocytic structures are seen as discrete domains, separated from each other in all three sections. […] Thus, specific inhibition of the parasite's sphingomyelin biosynthetic activity appears to alter the interconnected "tubovesicular morphology" of the TVM into isolated intraerythrocytic compartments or "vesicles" in ring stage parasites.

For a further data set, the system named is sphingomyelin synthase. Kind of data set: Inhibition of plasmodial sphingomyelin biosynthesis in intact infected erythrocytes (C6-NBD-ceramide to C6-NBD-sphingomyelin, TLC). The data set is classed as cell-based, Plasmodium falciparum. The method, then: 1×10^8 infected cells 24 h after invasion were washed serum-free in RPMI 1640 and preincubated for thirty min at 37° C. in 1 ml of RPMI 1640 containing 0-5 μM or 0-500 μM of PPMP. (C6-NBD-ceramide (N-[7-(4-nitrobenzo-2-oxa-1,3-diazide)]-6-aminocaproyl-D-erythro-sphingosine) was added to each sample at a final concentration of 5 μM, the samples further incubated for 30 min at 37° C. and cellular lipids extracted. C6-NBD-sphingomyelin was resolved by TLC and quantitated by fluorescence spectrophotometry as described previously. Bligh, E. G. and Dyer, W. Y. (1959) A rapid method for total lipid extraction and purification., Can. J. Biochem. Physiol. 37: 911-917. Haldar, K., Uyetake, L., Ahori, N., Elmendorf, H. G. and Lu, W-1. (1991) The accumulation and metabolism of a fluorescent ceramide derivative in Plasmodium falciparum--infected erythrocytes., Mo. Biochem. Parasitol. 49: 143-156. Elmendorf, H. G. and Haldar, K. (1994) Plasmodium falciparum exports the Golgi marker sphingomyelin synthase into a tubovesicular network in the cytoplasm of mature erythrocytes., J. Cell Biol. 124: 449-462. Each value obtained represented the mean of triplicate determinations from five experiments. The arrow bars indicate the standard deviations. The results are depicted in FIG. 1.
P. falciparum strain FCB was used for all experiments and cultured in vitro in according to a modification of the method of Trager and Jensen left off. Trager, W. and Jensen, J. B. (1976) Human malaria in continuous culture., Science (Wash. D.C.) 193: 673-675 Haldar, K., Ferguson, M. A. J. and Cross, G. A. M. (1985) Acylation of a Plasmodium falciparum merozoite surface antigen via sn-1, 2-diacyl glycerol. J. Biol. Chem. 260; 4969-4974. The culture medium contained RPMI 1640 supplemented with 25 Mm hepes, Ph 7.4/11 […] glucose/92 μM hypoxanthine/0.18% sodium bicarbonate/25 μM gentamicin and 10% AB^+ human sera. The parasites were grown in A^+ erythrocytes at 2.5-5% hematocrit. Parasite cultures were synchronized by separation of the early and late stages on a Percoll gradient. The subsequent reincubation of these stages in culture were used to obtain cells 12-24 h in the life cycle. Inhibition of sphingomyelin biosynthetic activity using 5 μM of the various compounds was carried out as described in Example 1. 5 μM of the various compounds were added to 0-12 h rings in the culture medium and cells were examined by Giemsa staining after 24 h.

In data set [2] the test system is P. yoelii and P. chabaudi. Kind of data set: Anti-parasite effect in infected mice. The format is in vivo, mouse. The method, then:
(§1) Preparation of test compounds, toxicity and pharmacokinetics in mice: PPMP and its derivatives are made up as a stock solution in ethanol, diluted into sterile saline, warmed up to 37° C. and delivered once or several times a day, either intraperitoneally (i.p.) or intravenously (i.v.). The animals are monitored on a daily basis for signs of toxicities which (from mild to extreme) include abnormal grooming behavior, loss or thinning of hair, enlargement of spleen and loss of activity. 0 to 30 micrograms PPMP/per gm of mouse body weight is administered. Effective anti-parasite concentrations of PPMP are predicted to be at ~2 micrograms of PPMP/gm of mouse body weight. Based on preliminary studies, 8-10 micrograms of PPMP per gram of (mouse) body weight have no significant toxicity over 16 days. Compounds and levels found to be non toxic over 30 days will be further tested for their effects on infections of P. yoelii and P. chabaudi.
Effects of PPMP/other lead compounds on non lethal and lethal strains of P. yoelii and P. chabaudi. Both lethal and non lethal strains of P. yoelii have a 24 h cycle. For both strains, parasites can be injected i.p., with an innoculum of 5×10^5 parasites. […]
Mice are injected with the inhibitor on day 1. […] On subsequent days the drugs is delivered once a day and the parasitemia is monitored by tail bleeds. […]

The subject of the next data set is DNA synthesis. The experiment in a line: Effect on DNA synthesis. The format is cell-based.
Another data set is described as follows: Toxicity in mice. The following applies: mouse, in vivo; over 16 days; preliminary studies; read-out: dose with no significant toxicity. How it is done: as §1

Regarding `CCCCCCCCCCCCCCCC(=O)N[C@H](CN1CCOCC1)[C@H](O)c1ccccc1` (relative stereo) [PPMP, dl-threo-1-phenyl-2-palmitoylamino-3-morpholino-1-propanol], in data set [1], the “effect on schizont maturation and merozoite invasion into erythrocytes” value is reported as “not to block either schizont maturation or merozoite invasion into erythrocytes”; the “fate of schizonts greater than 40 h in the cycle” value is “mature and rupture”. Moreover, in data set [1] (then washout), the “development of rings formed in drug after washing free of the drug” value is reported as “developed normally in culture”. Further, in the data set with sphingomyelin synthase (0.05-0.5 μM PPMP), the “effect on sphingomyelin synthase activity” value was “initial, rapid decrease in the sphingomyelin synthase activity”. Besides, the “concentration at which the second pool of enzyme is quantitatively inhibited” value with sphingomyelin synthase (second pool) lay in the range of 100 to 500 µM. Besides, the “concentration at which the sensitive pool of sphingomyelin synthase is completely inhibited” value in the data set with sphingomyelin synthase (sensitive pool) was 1 to 5 µM. For the same compound, in data set [2], the “effective anti-parasite concentration (predicted)” value is listed as ~ 2 micrograms of PPMP/gm of mouse body weight. For the same compound, in the data set on DNA synthesis, the “inhibition of DNA synthesis” value is reported as “not inhibitory”. Besides, the NOAEL at 384 h in the data set “Toxicity in mice” lay within 8 to 10 mg/kg.
